According to ChEMBL document CHEMBL5729279, “Cycloalkyl-diamines for the treatment of inflammation” (2022):

Biological target: Sigma non-opioid intracellular receptor 1 (Homo sapiens, UniProt Q99720)
Test: Pharmacological Activity: Ki determinations were generously provided by the National Institute of Mental Health's Psychoactive Drug Screening Program (PDSP).

Sequence of Sigma non-opioid intracellular receptor 1 (Q99720 whole entry): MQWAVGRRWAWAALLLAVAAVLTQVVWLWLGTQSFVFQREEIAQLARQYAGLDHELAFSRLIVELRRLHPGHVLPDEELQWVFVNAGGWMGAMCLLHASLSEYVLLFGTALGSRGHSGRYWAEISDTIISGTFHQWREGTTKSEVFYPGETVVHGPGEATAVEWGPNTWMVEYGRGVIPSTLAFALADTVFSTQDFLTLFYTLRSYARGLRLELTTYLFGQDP

## CN[C@@]1(c2ccccc2Cl)CCCCC1NCCCN1CCCC1 (stereo partly specified)
  Ki: 37.2 nM
